≈ marks a conversion by molar mass, not a printed value.
Legend:
[1] = test system: Mycobacterium tuberculosis; assay: Antitubercular activity against Mycobacterium tuberculosis H37Rv after 7 days by Alamar blue assay; assay type: functional; conditions: 168 h
[2] = Cytotoxicity against mouse RAW264.7 cells assessed as growth inhibition at 50 ug/ml after 48 hrs by MTT assay relative to control; assay type: cell-based; conditions: read-out: GI

Row | SMILES | MIC99 [1] [µM] | inhibition at 48 h, 50 ug/ml [2] [%]
1 | O=C(Nc1ccc(F)cc1)c1ccccc1-n1cc2ccccc2n1 | 37.8 (≈ 12.5 µg/mL) | –
2 | COc1ccc(NC(=O)c2ccccc2-n2cc3ccccc3n2)cc1 | 36.4 (≈ 12.5 µg/mL) | –
3 | O=C(Nc1ccccc1O)c1ccccc1-n1cc2ccccc2n1 | 38 (≈ 12.5 µg/mL) | –
4 | COc1cc(NC(=O)c2ccccc2-n2cc3ccccc3n2)cc(OC)c1OC | 7.75 (≈ 3.13 µg/mL) | 32.1
5 | O=C(NCc1ccccc1)c1ccccc1-n1cc2ccccc2n1 | 19.1 (≈ 6.26 µg/mL) | 31.6
6 | CC[C@@H](CO)NCCN[C@@H](CC)CO [ETHAMBUTOL] | 7.6 (≈ 1.55 µg/mL) | –
7 | COc1ccc(CNC(=O)c2ccccc2-n2cc3ccccc3n2)cc1 | 35 (≈ 12.5 µg/mL) | –
8 | Cc1ccc(CNC(=O)c2ccccc2-n2cc3ccccc3n2)cc1 | 9.16 (≈ 3.13 µg/mL) | 34.5
9 | CO[C@H]1/C=C/O[C@@]2(C)Oc3c(C)c(O)c4c(O)c(c(/C=N/N5CCN(C)CC5)c(O)c4c3C2=O)NC(=O)/C(C)=C\C=C\[C@H](C)[C@H](O)[C@@H](C)[C@@H](O)[C@@H](C)[C@H](OC(C)=O)[C@@H]1C [RIFAMPIN] | 0.5 (≈ 0.411 µg/mL) | –
10 | O=C(NCCc1c[nH]c2ccccc12)c1ccccc1-n1cc2ccccc2n1 | 16.4 (≈ 6.25 µg/mL) | 18.8
11 | O=C(Nc1ccccn1)c1ccccc1-n1cc2ccccc2n1 | 19.9 (≈ 6.26 µg/mL) | 31.8
12 | NNC(=O)c1ccncc1 [ISONIAZID] | 0.4 (≈ 0.0549 µg/mL) | –
13 | O=C(NCc1ccccc1)c1ccccc1-n1cc2cc(Br)ccc2n1 | 7.72 (≈ 3.14 µg/mL) | 40.5
14 | O=C(NCc1ccccc1)c1ccccc1-n1cc2ccc(Br)cc2n1 | 56.4 (≈ 22.9 µg/mL) | –
15 | O=C(NCc1ccc(Cl)cc1)c1ccccc1-n1cc2ccccc2n1 | 8.66 (≈ 3.13 µg/mL) | 28.1
16 | O=C(NCc1ccccc1)c1ccccc1-n1cc2ccc(Cl)cc2n1 | 17.3 (≈ 6.26 µg/mL) | 30.6
17 | Cc1ccc(NC(=O)c2ccccc2-n2cc3ccccc3n2)c(C)c1 | 18.3 (≈ 6.25 µg/mL) | 36.7
18 | O=C(NCc1ccccc1)c1ccccc1-n1cc2cc3c(cc2n1)OCO3 | 4.2 (≈ 1.56 µg/mL) | 22.9
19 | O=C(NC1CCCCC1)c1ccccc1-n1cc2ccccc2n1 | 78.4 (≈ 25 µg/mL) | –
20 | Cc1ccnc(NC(=O)c2ccccc2-n2cc3ccccc3n2)c1 | 38.1 (≈ 12.5 µg/mL) | –
21 | O=C(NCc1ccccc1Cl)c1ccccc1-n1cc2ccccc2n1 | 10.6 (≈ 3.83 µg/mL) | 23.7
22 | CC(C)(C)NC(=O)c1ccccc1-n1cc2ccccc2n1 | 42.7 (≈ 12.5 µg/mL) | –
23 | CCCCNC(=O)c1ccccc1-n1cc2ccccc2n1 | 85.3 (≈ 25 µg/mL) | –
24 | O=C(NCc1ccc(F)cc1)c1ccccc1-n1cc2ccccc2n1 | 36.3 (≈ 12.6 µg/mL) | –
25 | O=C(Nc1ccccc1)c1ccccc1-n1cc2ccccc2n1 | 15.8 (≈ 4.96 µg/mL) | 39.6
